Measured values taken from publication PMC10937574, “Modification of 4-(4-chlorothiophen-2-yl)thiazol-2-amine derivatives for the treatment of analgesia and inflammation: synthesis and in vitro, in vivo, and in silico studies” (Frontiers in Pharmacology, 2024).
Several values for one entry are separate records, joined by “and”; a condition that tells them apart may be missing. Identical values can stand only once. Like-named read-outs stand apart in the source and are kept apart here. Each block holds one compound with its values, some of them ahead of it.

Tests used:
[1] = test system: carrageenan-induced paw edema; assay: Carrageenan-induced paw edema; assay type: in vivo, albino mice
[2] = test system: prostaglandin E2-induced paw edema; assay: Prostaglandin E2-induced paw edema; assay type: in vivo, mouse
Experimental: It was done by injecting 10% DMSO, a Bradykinin inhibitor (HOE 140) at a dose of 1 mg/kg, a lipoxygenase inhibitor (montelukast) at a dose of 25 mg/kg, an antihistamine at a dose of 100 mg/kg, the tested compound at a dose of 100 mg/kg, or a cyclooxygenase inhibitor (celecoxib) at a dose of 50 mg/kg.

5-LOX enzyme = assay: 5-LOX activity (5-lipoxygenase inhibition, linoleic acid substrate, absorbance 234 nm); conditions: read-out: IC50 ± SEM 5-LOX
[3] = test system: bradykinin-induced paw edema; assay: Bradykinin-induced paw edema; assay type: in vivo, mouse; conditions: 20 mg/kg, first hour
Experimental: (§1) It was done by injecting 10% DMSO, a Bradykinin inhibitor (HOE 140) at a dose of 1 mg/kg, a lipoxygenase inhibitor (montelukast) at a dose of 25 mg/kg, an antihistamine at a dose of 100 mg/kg, […], or a cyclooxygenase inhibitor (celecoxib) at a dose of 50 mg/kg.

[4] = test system: leukotriene-induced paw edema; assay: Leukotriene-induced paw edema; assay type: in vivo, mouse; conditions: for percentage inhibition of leukotriene-induced paw edema: 20 mg/kg
Experimental: as §1

[5] = test system: histamine-induced paw edema; assay: Histamine-induced paw edema; assay type: in vivo, mouse; conditions: 20 mg/kg, at 3 h

IC50 (5-LOX enzyme): 93.15 ± 0.07 µM
Structure (SMILES): Nc1nc(-c2cc(Cl)cs2)c(N2CCNCC2)s1 [Compound 5a]

IC50 (5-LOX enzyme): 98.26 ± 0.08 µM
Structure (SMILES): CCNc1nc(-c2cc(Cl)cs2)c(N2CCNCC2)s1 [Compound 5b]

IC50 (5-LOX enzyme): 72.32 ± 0.11 µM
Structure (SMILES): CCNc1nc(-c2cc(Cl)cs2)c(N2CCN(C)CC2)s1 [Compound 5c]

IC50 (5-LOX enzyme): 23.08 ± 0.18 µM
Structure (SMILES): CN1CCN(c2sc(NCc3ccccc3)nc2-c2cc(Cl)cs2)CC1 [Compound 5d]
inhibition of bradykinin-induced paw swelling [3]: 9.20%
percentage inhibition of leukotriene-induced paw edema ([4]; fifth hour (fifth of five values)): 59.90 ± 0.68%
percentage inhibition of leukotriene-induced paw edema ([4]; first hour (first of five values)): 51.80 ± 0.58%
percentage inhibition of leukotriene-induced paw edema ([4]; fourth hour): 64.56 ± 0.78%
percentage inhibition of leukotriene-induced paw edema ([4]; second hour (second of five values)): 55.90 ± 0.66%
percentage inhibition of leukotriene-induced paw edema ([4]; third hour (third of five values)): 59.46 ± 0.52%
Percent inhibition of paw edema ([1]; dose 5 mg/kg, 1 h): 45.47 ± 1.11%
Percent inhibition of paw edema ([1]; dose 5 mg/kg, 2 h): 48.10 ± 1.42 %
Percent inhibition of paw edema ([1]; dose 10 mg/kg, 1 h): 49.68 ± 1.44%
Percent inhibition of paw edema ([1]; dose 20 mg/kg, 5 h): 61.64 ± 1.10%
antihistaminic effect (suppression of histamine-induced paw edema) [5]: 27.12%
inhibition of prostaglandin E2-induced paw edema ([2]; 20 mg/kg, fourth hour): 76.56 ± 0.58

IC50 (5-LOX enzyme; listed as C00005): 38.45 ± 0.2 µM
Structure (SMILES): Clc1csc(-c2nc(NCc3ccccc3)sc2Nc2ccccc2)c1 [Compound 5e]
inhibition of bradykinin-induced paw swelling [3]: 21.30%
percentage inhibition of leukotriene-induced paw edema ([4]; fourth hour): 69.84%
Percent inhibition of paw edema ([1]; dose 5 mg/kg, 1 h): 47.70 ± 1.68 %
Percent inhibition of paw edema ([1]; dose 5 mg/kg, 2 h): 51.47 ± 1.50 %
Percent inhibition of paw edema ([1]; dose 5 mg/kg, 3 h): 54.56 ± 1.34 %
Percent inhibition of paw edema ([1]; dose 5 mg/kg, 4 h): 53.35 ± 1.47 %
Percent inhibition of paw edema ([1]; dose 5 mg/kg, 5 h): 56.25 ± 1.65 %
Percent inhibition of paw edema ([1]; dose 10 mg/kg, 1 h): 52.36 ± 2.26 %
Percent inhibition of paw edema ([1]; dose 10 mg/kg, 2 h): 54.58 ± 2.58 %
Percent inhibition of paw edema ([1]; dose 10 mg/kg, 3 h): 57.59 ± 1.59 %
Percent inhibition of paw edema ([1]; dose 10 mg/kg, 4 h): 56.78 ± 2.66 %
Percent inhibition of paw edema ([1]; dose 10 mg/kg, 5 h): 62.65 ± 2.79 %
Percent inhibition of paw edema ([1]; dose 20 mg/kg, 1 h): 55.29% and 55.29 ± 1.04 %
Percent inhibition of paw edema ([1]; dose 20 mg/kg, 2 h): 57.39 ± 1.69 %
Percent inhibition of paw edema ([1]; dose 20 mg/kg, 3 h): 60.76 ± 2.68 %
Percent inhibition of paw edema ([1]; dose 20 mg/kg, 4 h): 59.08 ± 1.98 %
Percent inhibition of paw edema ([1]; dose 20 mg/kg, 5 h): 64.59% and 64.59 ± 1.49 %
antihistaminic effect (suppression of histamine-induced paw edema) [5]: 35%

IC50 (5-LOX enzyme): 56.21 ± 0.15 µM
Structure (SMILES): CCNc1nc(-c2cc(Cl)cs2)c(Nc2ccccc2)s1 [Compound 5f]

IC50 (5-LOX enzyme): 83.11 ± 0.16 µM
Structure (SMILES): C#CCNc1nc(-c2cc(Cl)cs2)c(Nc2ccccc2)s1 [Compound 5g]

Second part, the compound before the results:

Structure (SMILES): CC(=O)Oc1ccccc1C(=O)O [Aspirin, reference compound]
Percent inhibition of paw edema ([1]; dose 50 mg/kg, 1 h): 48.52 ± 1.12 %
Percent inhibition of paw edema ([1]; dose 50 mg/kg, 2 h): 54.63 ± 1.47 %
Percent inhibition of paw edema ([1]; dose 50 mg/kg, 3 h): 55.22 ± 1.38 %
Percent inhibition of paw edema ([1]; dose 50 mg/kg, 4 h): 58.92 ± 1.95 %
Percent inhibition of paw edema ([1]; dose 50 mg/kg, 5 h): 59.60 ± 1.52 %
Percent inhibition of paw edema ([1]; dose 50 mg/kg, 5 h, listed as aspirin): 59.60%

Structure (SMILES): Cc1ccc(-c2cc(C(F)(F)F)nn2-c2ccc(S(N)(=O)=O)cc2)cc1 [Celecoxib, reference compound]
reduction of prostaglandin E2-induced paw edema ([2]; celecoxib 50 mg/kg, 4th hour after inflammogen): 88%

Structure (SMILES): CC(C)(O)c1ccccc1CC[C@@H](SCC1(CC(=O)O)CC1)c1cccc(/C=C/c2ccc3ccc(Cl)cc3n2)c1 [montelukast, reference compound]
percentage reduction of leukotriene-induced paw edema ([4]; montelukast 25 mg/kg, fourth hour): 72.79 ± 1.10%
